Values of other authors, collected in patent publication US20250171456A1, “P[…] AND THEIR THERAPEUTIC USES” (priority 2022, published 2025).

Key:
[1] = humans, after oral administration of psilocybin (Passie, 2002)
[2] = Ballesteros, 2006

Compound	time until psilocin is detectable in significant amounts in the plasma [1]	solubility in water relative to psilocin [2]
CN(C)CCc1c[nH]c2cccc(O)c12 [Psilocin]	20 to 40 min	–
CN(C)CCc1c[nH]c2cccc(OP(=O)(O)O)c12 [Psilocybin]	–	more soluble in water than psilocin
